pIC50: −log10 of the molar value.
Key:
[1] = Tmax in guinea pig at 10 mg/kg, po; assay type: ADME, organism-based, Cavia porcellus; conditions: in vivo
[2] = molecular target: T1, Cytochrome P450 11B1, mitochondrial (Homo sapiens, UniProt P15538); test: Inhibition of recombinant CYP11B1 (unknown origin) expressed in human AD293 cells using 11-deoxycortisol as substrate pretreated for 60 mins followed by substrate addition and measured after 12 hrs by LC/MS analysis; assay type: cell-based
T1 sequence (P15538 whole entry): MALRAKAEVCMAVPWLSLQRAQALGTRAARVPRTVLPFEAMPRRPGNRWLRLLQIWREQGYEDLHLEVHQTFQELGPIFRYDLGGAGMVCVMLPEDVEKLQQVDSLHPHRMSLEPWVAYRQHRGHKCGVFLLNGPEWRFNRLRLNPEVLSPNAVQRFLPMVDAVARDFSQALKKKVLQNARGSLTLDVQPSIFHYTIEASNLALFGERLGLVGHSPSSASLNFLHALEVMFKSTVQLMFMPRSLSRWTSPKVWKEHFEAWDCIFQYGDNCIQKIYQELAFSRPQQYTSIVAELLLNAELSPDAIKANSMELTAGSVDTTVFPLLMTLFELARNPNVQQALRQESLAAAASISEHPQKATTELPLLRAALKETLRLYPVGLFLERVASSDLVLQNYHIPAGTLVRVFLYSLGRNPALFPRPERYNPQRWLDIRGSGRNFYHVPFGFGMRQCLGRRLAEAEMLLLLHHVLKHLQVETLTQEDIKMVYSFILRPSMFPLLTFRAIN

[3] = Oral bioavailability in guinea pig at 10 mg/kg; assay type: ADME, organism-based, Cavia porcellus; conditions: in vivo
[4] = molecular target: T2, Steroid 21-hydroxylase (Homo sapiens, UniProt P08686); test: Inhibition of recombinant CYP21 (unknown origin) expressed in human AD293 cells using 17alpha-hydroxyprogesterone as substrate pretreated for 60 mins followed by substrate addition and measured after 45 mins by LC/MS analysis; assay type: cell-based
T2 sequence (P08686 whole entry): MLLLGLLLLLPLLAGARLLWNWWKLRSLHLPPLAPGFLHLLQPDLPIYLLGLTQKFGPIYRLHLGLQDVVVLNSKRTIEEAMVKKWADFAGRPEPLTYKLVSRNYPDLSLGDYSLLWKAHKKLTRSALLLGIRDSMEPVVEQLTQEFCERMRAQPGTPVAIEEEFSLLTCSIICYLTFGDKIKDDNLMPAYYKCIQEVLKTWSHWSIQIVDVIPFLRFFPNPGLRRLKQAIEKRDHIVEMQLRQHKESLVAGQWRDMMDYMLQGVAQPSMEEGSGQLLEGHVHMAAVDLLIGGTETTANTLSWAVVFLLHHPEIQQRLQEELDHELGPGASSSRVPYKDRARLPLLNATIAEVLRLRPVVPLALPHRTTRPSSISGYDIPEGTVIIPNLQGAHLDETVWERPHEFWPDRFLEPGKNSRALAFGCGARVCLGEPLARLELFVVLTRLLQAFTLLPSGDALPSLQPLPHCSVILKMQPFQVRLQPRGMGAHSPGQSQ

[5] = molecular target: T3, Steroid 17-alpha-hydroxylase/17,20 lyase (Homo sapiens, UniProt P05093); test: Inhibition of recombinant CYP17 (unknown origin) expressed in human AD293 cells using 21[3H]-17alpha-hydroxyl-pregnenolone as substrate pretreated for 60 mins followed by substrate addition and measured after 4 hrs by Topcount method; assay type: cell-based
T3 sequence (P05093 whole entry): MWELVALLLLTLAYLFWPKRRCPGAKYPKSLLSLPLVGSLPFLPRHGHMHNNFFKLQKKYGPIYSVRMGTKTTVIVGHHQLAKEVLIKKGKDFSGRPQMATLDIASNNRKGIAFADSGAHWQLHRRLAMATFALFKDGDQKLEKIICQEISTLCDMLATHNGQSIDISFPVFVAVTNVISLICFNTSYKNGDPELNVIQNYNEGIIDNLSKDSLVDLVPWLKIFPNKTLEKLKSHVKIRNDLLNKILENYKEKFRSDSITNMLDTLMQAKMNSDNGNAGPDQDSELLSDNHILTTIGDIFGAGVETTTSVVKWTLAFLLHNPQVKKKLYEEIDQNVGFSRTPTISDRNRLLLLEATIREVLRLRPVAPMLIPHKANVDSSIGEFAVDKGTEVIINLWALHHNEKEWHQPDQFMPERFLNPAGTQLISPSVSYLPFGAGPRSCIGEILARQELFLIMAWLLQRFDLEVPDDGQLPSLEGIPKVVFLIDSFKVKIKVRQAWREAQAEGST

Tmax [1]	pIC50 [2]	F [3]	pIC50 [4]	pIC50 [5]	bioavailability [3]	Compound
3 h	5.92	184.21%	6.37	8.30 to 8.34		CC(=O)N1CCN(c2ccc(/C=C/c3cc(F)cc(-c4ccncc4)c3)cc2)CC1
	7.31		≤ 5.00	7.24		CS(=O)(=O)N1CCN(c2ccc(/C=C/c3cc(F)cc(Cn4ccnc4)c3)cc2)CC1
	6.35		6.08	8.30		CS(=O)(=O)N1CCN(c2ccc(/C=C/c3cc(Cl)cc(-c4ccncc4)c3)cc2)CC1
	7.29		6.38	8.30		O=S(=O)(C1CC1)N1CCN(c2ccc(/C=C/c3cc(Cl)cc(-c4ccncc4)c3)cc2)CC1
	7.24		6.25	8.30		CC(C)S(=O)(=O)N1CCN(c2ccc(/C=C/c3cc(Cl)cc(-c4ccncc4)c3)cc2)CC1
5.33 h					22.3%	CCS(=O)(=O)N1CCN(c2ccc(/C=C/c3cc(F)cc(-c4ccncc4)c3)cc2)CC1
	5.74		5.92	8.30		Fc1cc(/C=C/c2ccc(N3CCN(C4=NCCO4)CC3)cc2)cc(-c2ccncc2)c1
8 h						O=S(=O)(C1CC1)N1CCN(c2ccc(/C=C/c3cc(F)cc(-c4ccncc4)c3)cc2)CC1
	6.70		6.13	8.30		CS(=O)(=O)N1CCN(c2ccc(/C=C/c3cc(F)cc(-c4ccncc4)c3)cc2)CC1
	5.44		≤ 5.00	7.74		N=C(N)N1CCN(c2ccc(/C=C/c3cc(F)cc(-c4ccncc4)c3)cc2)CC1
	5.00		≤ 5.00			N=C(N)N1CCN(c2ccc(/C=C/c3cc(Cl)cc(-c4ccncc4)c3)cc2)CC1
3.33 h					22.1%	O=S(=O)(N1CCN(c2ccc(/C=C/c3cc(F)cc(-c4ccncc4)c3)cc2)CC1)C(F)(F)F
	5.46		5.92	8.30		Clc1cc(/C=C/c2ccc(N3CCN(C4=NCCO4)CC3)cc2)cc(-c2ccncc2)c1

Second part, the compound before the results:

Compound	Tmax [1]	pIC50 [2]	F [3]	pIC50 [4]	pIC50 [5]	bioavailability [3]
CCS(=O)(=O)N1CCN(c2ccc(/C=C/c3cc(Cl)cc(Cn4ccnc4)c3)cc2)CC1				6.27	7.62	
N=C(N)N1CCN(c2ccc(/C=C/c3cc(Cl)cc(Cn4ccnc4)c3)cc2)CC1		5.89		≤ 5.00	5.60	
CC(=O)N1CCN(c2ccc(/C=C/c3cc(O)cc(-n4ccnc4)c3)cc2)CC1		5.32		5.71	6.66	
CC(=O)N1CCN(c2ccc(/C=C/c3cc(Cl)cc(Cn4ccnc4)c3)cc2)CC1					7.38	
CC(C)S(=O)(=O)N1CCN(c2ccc(/C=C/c3cc(F)cc(Cn4ccnc4)c3)cc2)CC1		8.30		6.15	7.41	
CC(=O)N1CCN(c2ccc(/C=C/c3cc(O)cc(Cn4ccnc4)c3)cc2)CC1		7.29		5.62	7.06	
CC(=O)N1CCN(c2ccc(CCc3cc(F)cc(-c4ccncc4)c3)cc2)CC1		8.85		≤ 5.00	7.68	
O=S(=O)(c1c[nH]cn1)N1CCN(c2ccc(/C=C/c3cc(Cl)cc(Cn4ccnc4)c3)cc2)CC1		8.15		≤ 5.00	8.21	
N#Cc1cccc(S(=O)(=O)N2CCN(c3ccc(/C=C/c4cc(Cl)cc(Cn5ccnc5)c4)cc3)CC2)c1		8.40		5.92	7.68	
CC(C)S(=O)(=O)N1CCN(c2ccc(/C=C/c3cc(Cl)cc(Cn4ccnc4)c3)cc2)CC1		6.62		7.07	7.42	
O=[N+]([O-])c1cccc(S(=O)(=O)N2CCN(c3ccc(/C=C/c4cc(Cl)cc(Cn5ccnc5)c4)cc3)CC2)c1		8.40		6.80	8.05	
Oc1cc(/C=C/c2ccc(Br)cc2)cc(-n2ccnc2)c1		5.85		≤ 5.00	5.92	
O=S(=O)(CCCCl)N1CCN(c2ccc(/C=C/c3cc(Cl)cc(Cn4ccnc4)c3)cc2)CC1		7.89		5.54	7.51	
Fc1cc(/C=C/c2ccc(N3CCN(C4=NCCCO4)CC3)cc2)cc(Cn2ccnc2)c1		7.77		6.00	7.38	
O=C(c1cccc([N+](=O)[O-])c1)N1CCN(c2ccc(/C=C/c3cc(Cl)cc(Cn4ccnc4)c3)cc2)CC1		8.40		≤ 5.00	7.77	
O=C(c1cccnc1)N1CCN(c2ccc(/C=C/c3cc(Cl)cc(Cn4ccnc4)c3)cc2)CC1		8.31		≤ 5.00	7.59	
Fc1cc(/C=C/c2ccc(N3CCN(C4=NCCO4)CC3)cc2)cc(Cn2ccnc2)c1		6.89		≤ 5.00	6.93	
O=[N+]([O-])c1cc(S(=O)(=O)N2CCN(c3ccc(/C=C/c4cc(Cl)cc(Cn5ccnc5)c4)cc3)CC2)ccc1Cl		7.24		≤ 5.00	6.97	
CS(=O)(=O)N1CCN(c2ccc(/C=C/c3cc(Cl)cc(Cn4ccnc4)c3)cc2)CC1		7.62		5.66	6.74	
N#CCS(=O)(=O)N1CCN(c2ccc(/C=C/c3cc(F)cc(Cn4ccnc4)c3)cc2)CC1		7.14		≤ 5.00	7.07	
O=S(=O)(C1CC1)N1CCN(c2ccc(/C=C/c3cc(Cl)cc(Cn4ccnc4)c3)cc2)CC1		7.66		6.47		
N=C(N)N1CCN(c2ccc(/C=C/c3cc(F)cc(Cn4ccnc4)c3)cc2)CC1		5.85		≤ 5.00	5.92	
Clc1cc(/C=C/c2ccc(N3CCN(C4=NCCO4)CC3)cc2)cc(Cn2ccnc2)c1		6.89		5.46	7.00	

Reference: ChEMBL document CHEMBL4257083, “Novel cytochrome p450 inhibitors and their method of use” (2016)
